Test results: patent publication US20220323390A1, “DIETARY SUPPLEMENT TO PROMOTE GUT HEALTH” (TERRAGENICS NUTRITION, INC., priority 2019, published 2022)

Key:
Format in all cases: cell-based, human
[1] = test system: claudin-1; experiment: qPCR gene expression of claudin-1 in Caco-2/HT29-MTX co-culture; conditions: 48 h; compared to the TNFα/IFNγ control
Procedure: (§1) Caco-2/HT29-MTX monolayers were cultured for 14 days, with three medium changes/week, until a functional cell monolayer with a transepithelial electrical resistance (TEER) was obtained. Cells were maintained in Dulbecco's Modified Eagle Medium (DMEM) containing glucose and glutamine and supplemented with HEPES and 20% (v/v) heat-inactivated (HI) fetal bovine serum (FBS). Before treatment, the TEER of the Caco-2/HT29-MTX monolayers was measured (0 h time point). The TEER of an empty insert was subtracted from all readings to account for the residual electrical resistance of an insert. The apical compartment (containing the Caco-2/HT29-MTX cells) was filled with sterile-filtered (0.22 μm) colonic batch suspensions. […] Cells were treated for 48 h and the TEER was measured at 24 h (=24 h time point) and 48 h (=48 h time point). […]
(§2) After 48 h, cells were lysed in RNA lysis buffer, centrifuged and the […] collected. qPCR is performed for tight junction genes (claudin-1, -2, -3 and -4, and occludin) and mucin genes (mucin 3); 2 housekeeping genes were Included. […] Mucins can be measured as disclosed for example in Leteutre, E. et al, Biology of the Cell 96 (2004) 145-151. Mucin turnover can be assessed as described for example in Schneider, H. et al, Nature Scientific Reports | (2018) 8:5760 | DOI:10.1038/s41598-018-24148-x. […]

[2] = test system: mucin-3; experiment: qPCR gene expression of mucin-3 in Caco-2/HT29-MTX co-culture; conditions: 48 h; compared to the TNFα/IFNγ control
Procedure: as §1, §2

[3] = test system: occludin; experiment: qPCR gene expression of occludin in Caco-2/HT29-MTX co-culture; conditions: 48 h; compared to the TNFα/IFNγ control
Procedure: as §1, §2

[4] = test system: claudin-2; experiment: qPCR gene expression of claudin-2 in Caco-2/HT29-MTX co-culture; conditions: 48 h; compared to the TNFα/IFNγ control
Procedure: as §1, §2

[5] = test system: claudin-3; experiment: qPCR gene expression of claudin-3 in Caco-2/HT29-MTX co-culture; conditions: 48 h; compared to the TNFα/IFNγ control
Procedure: as §1, §2

[6] = test system: Caco-2/HT29-MTX co-cultures; experiment: Transepithelial electrical resistance (TEER) of TNFα/IFNγ-treated co-cultures given colonic batch samples; conditions: TNFα/IFNγ stimulation
Excerpt: Caco-2, when seeded on suitable supports, spontaneously differentiate Into mature enterocyte-like cells, characterized by polarization, presence of villi, formation of domes, presence of tight junctions and vectorial transport and expression of apical brush-border enzymes (reviewed by Sambuy, Y., et al. (2005) Cell Biology and Toxicology. 21: 1-26). The mucus layer is mimicked by co-culturing Caco-2 cells with HT29-MTX cells, a mucin producing human cell line. This model is considered a useful in vitro intestinal model.
Barrier function was evaluated by measuring TEER and expression of tight junction and mucin genes in the co-culture model using TNF alpha/IFN gamma as an inflammatory insult. Inulin and sodium butyrate were used as positive controls. The test products were administered at three different concentrations. […]
Caco-2/HT29-MTX monolayers were cultured for 14 days, with three medium changes/week, until a functional cell monolayer with a transepithelial electrical resistance (TEER) was obtained. […] Before treatment, the TEER of the Caco-2/HT29-MTX monolayers was measured (0 h time point). The TEER of an empty insert was subtracted from all readings to account for the residual electrical resistance of an insert. […] Cells were treated for 48 h and the TEER was measured at 24 h (=24 h time point) and 48 h (=48 h time point). […]
TEER was measured again at 24 h and 48 h of incubation. […]

[7] = test system: claudin-4; experiment: qPCR gene expression of claudin-4 in Caco-2/HT29-MTX co-culture; conditions: 48 h; compared to the TNFα/IFNγ control
Procedure: as §1, §2

CCCC(=O)[O-].[Na+] [Sodium butyrate]
expression of claudin-1 [1]: No effect | expression of mucin-3 [2]: strongly increased the expression | expression of occludin [3]: increased the expression | expression of claudin-2 [4]: decreased the expression | expression of claudin-3 [5]: increased the expression | decrease in TEER ([6]; 24 h of incubation): approximately 80% | TEER relative to initial value ([6]; 48 h of incubation): increased the TEER above its initial value | expression of claudin-4 [7]: increased the expression
